Assay results as given in article PMC8769072, “Proteome‐scale mapping of binding sites in the unstructured regions of the human proteome” (Molecular Systems Biology, 2022).

Test system: immobilized GST-tagged bait protein domains
Assay: ProP-PD phage selections (HD2 P8, sublibraries, HD2 P3, HD1 P8) with NGS and confidence level
Assay type: binding, human
Conditions: for HD2_nucleus confidence: library HD2 P8 nucleus
[1] = HD2 library, bait TSG101_UEV__Q99816_1_145, known motif instance of the benchmarking set found (TRUE) or not found (FALSE) among selected peptides
[2] = bait CLTC_Clathrin-propeller__Q00610_1_364, library HD2, benchmarking set of validated motif instances, TRUE = motif instance recovered in the ProP-PD selection
[3] = HD2 library, bait SUMO1_SUMO__P63165_1_101, known motif instance of the benchmarking set found (TRUE) or not found (FALSE) among selected peptides
[4] = library HD2, bait EPS15_EH__P42566_121_215, whether the validated benchmark motif instance was recovered in the ProP-PD selection (TRUE/FALSE)
[5] = library HD2, bait EIF4E_eIF4E__P06730_1_217, whether the validated benchmark motif instance was recovered in the ProP-PD selection (TRUE/FALSE)
[6] = HD2 library, bait TNKS_TANK-peptide-bind__O95271_174_649, known motif instance of the benchmarking set found (TRUE) or not found (FALSE) among selected peptides
[7] = bait MAP1LC3B_ATG8 (Q9GZQ8 2-119), HD2 library, benchmark motif instance recovered in the ProP-PD selection (TRUE/FALSE)
[8] = library HD2, bait WDR5_WD_1234567_P61964_21_334, validated benchmark motif instance, in_library_check TRUE, TRUE/FALSE = instance recovered in ProP-PD selection
[9] = library HD2, bait TSG101_UEV__Q99816_1_145, validated benchmark motif instance, in_library_check TRUE, TRUE/FALSE = instance recovered in ProP-PD selection
[10] = library HD2, bait VASP_EVH1__P50552_1_114, validated benchmark motif instance, in_library_check TRUE, TRUE/FALSE = instance recovered in ProP-PD selection
[11] = library HD2, bait EPS15_EH__P42566_121_215, best matching peptide
[12] = library HD2, bait EPS15_EH__P42566_121_215, confidence level of best matching peptide (4 High, 2-3 Medium, 1 Low)
[13] = library HD2, bait USP7_MATH-TRAF__Q93009_53_206, validated benchmark motif instance, in_library_check TRUE, TRUE/FALSE = instance recovered in ProP-PD selection
[14] = bait KPNA4_Arm (O00629 68-487), HD2 library, benchmark motif instance recovered in the ProP-PD selection (TRUE/FALSE)
[15] = bait PEX14_Pex14__O75381_16_84, HD2 library, whether the validated benchmark motif instance was recovered in the ProP-PD selection (TRUE/FALSE)

Work on PAPALPPKPPKPTTVA yielded a best_specificity (bait CRK_SH3_1_P46108_124_198, library HD2, best matching peptide) of 1 and a best_confidence (bait CRK_SH3_1_P46108_124_198, library HD2, confidence level of best matching peptide (4 = High, 2 or 3 = Medium, 1 = Low)) of 2.

PAPAPLPPPSAPSLQPSRKL was tested, and the motif_found [1] was “FALSE”.

For PATKEISLLDLEDFTPPSV [AP3B2], the motif_found [2] was “FALSE”.

PEISLEAEPIELVETAGDEIVD was tested, and the motif_found [3] was “FALSE”.

With PFEEPTCINPFEMDSDSGP the motif_found [4] was “FALSE”.

PFSEQASLLDLDFDPLPPV [BIN1] was tested, and the motif_found [2] was “FALSE”.

In the case of PGADVVDLTLDSSSSS, the best_confidence (bait SUMO1_SUMO__P63165_1_101, HD2 library, confidence level (1-4) of best matching selected peptide) is reported as 2, the best_specificity (bait SUMO1_SUMO__P63165_1_101, HD2 library, specificity score of best matching selected peptide) is reported as 1 and the motif_found (bait SUMO1_SUMO__P63165_1_101, HD2 library, whether the validated benchmark motif instance was recovered in the ProP-PD selection (TRUE/FALSE)) is reported as “TRUE”.

Substance PGGGHPAPSWVAFAHT has an HD2 confidence (bait AP2B1_adaptin__P63010_700_937, HD2 P8 selection, non primary paralogue peptide match, confidence level -4 to 4: 4 = High, 3 or 2 = Medium, 1 = Low, 0 = Filtered/Noise) of 4.

PGGTRIIYDRKFLLDRRNSPM was tested, and the motif_found [5] was “FALSE”.

PGGTRIIYDRKFLLECKNSPI was tested, and the motif_found [5] was “FALSE”.

For PGPPAPNTNPFLL------, the motif_found [4] was “FALSE”.

For “PGSAPPPQAQGPPYPTYPGYPGYCQ,QAQGPPYPTYPGY [PDCD6IP]”, the motif_found (bait CEP55_EABR__Q53EZ4_160_217, library HD2, benchmarking set of validated motif instances, TRUE = motif instance recovered in the ProP-PD selection) was “FALSE”.

For PIPHDGNLYPRLYPELSQY [SDCBP 45-49], the motif_found (HD2 library, bait PDCD6IP_Alix-V-domain__Q8WUM4_360_702, benchmark motif instance, in_library_check FALSE, in_library_coverage 0) was “FALSE”.

PLIDLPLIDFCDTPEA gave an HD2_nc confidence (bait CLTC_Clathrin-propeller__Q00610_1_364, HD2 P8 nucleocytoplasmic sublibrary, confidence level (4 = High, 2-3 = Medium, 1 = Low)) of 4, an HD2_nc mean counts (bait CLTC_Clathrin-propeller__Q00610_1_364, HD2 P8 nucleocytoplasmic sublibrary, mean NGS counts over replicate selections) of 154.7 and an HD2_nc count proportions (bait CLTC_Clathrin-propeller__Q00610_1_364, HD2 P8 nucleocytoplasmic sublibrary, mean proportion of NGS counts) of 0.002602.

With PLTKDVSLLDLDDFNPVST [AP3B1] the motif_found [2] was “FALSE”.

Work on PLYTSPSLPNITLGLP yielded a best_specificity (bait ANKRA2_Ank__Q9H9E1_142_313, library HD2, best matching peptide) of 1 and a best_confidence (bait ANKRA2_Ank__Q9H9E1_142_313, library HD2, confidence level of best matching peptide (4 = High, 2 or 3 = Medium, 1 = Low)) of 3.

PMLPDLTLEAWPSTDK gave a confidence (library HD, bait ANKRA2_Ank__Q9H9E1_142_313, ProP-PD peptides with disease-related mutations) of 3.

PPAEEPEARPDGEGSPGKARPG was tested, and the motif_found [6] was “FALSE”.

With PPAGLNSSWVELPMNSSNG the motif_found [7] was “FALSE”.

For PPAPVNDEPIVIED-------, the motif_found [3] was “FALSE”.

With PPDTKLSKLDVLLLAT the HD2_nucleus confidence (bait SIN3A_PAH__Q96ST3_295_383) was 4.

Substance PPGPPPPYHAHAHLHH has an HD confidence (bait YAP1_WW_1_P46937_169_207, library HD) of 3, a p3_HD2 confidence (bait YAP1_WW_1_P46937_169_207, library HD2 P3) of 2 and a p3_HD2 count proportions (bait YAP1_WW_1_P46937_169_207, library HD2 P3, mean normalised NGS counts) of 0.001797. It also gave a p3_HD2 mean counts (bait YAP1_WW_1_P46937_169_207, library HD2 P3, mean raw NGS counts, all selections) of 44.67, an HD2 confidence (bait YAP1_WW_1_P46937_169_207, library HD2 P8) of 4 and an HD2_nucleus confidence (bait YAP1_WW_1_P46937_169_207) of 4. It also gave an HD count proportions (bait YAP1_WW_1_P46937_169_207, library HD, mean normalised NGS counts) of 0.02186 and an HD mean counts (bait YAP1_WW_1_P46937_169_207, library HD, mean raw NGS counts, all selections) of 187.3.

With PPLNPHGAARAEVYLRKCTFD the motif_found [8] was “FALSE”.

PPLNPHGSARAEVHLRKSAFD was tested, and the motif_found [8] was “FALSE”.

For PPMGEVVTPTAPQEPPESVR, the motif_found [9] was “FALSE”.

PPPEDFPLPPPPLAGDGDD was tested, and the motif_found [10] was “FALSE”.

With PPPIEESFPPAPLEEEIFP the motif_found [10] was “FALSE”.

For PPPPPEDFPLPPPPLAGDG, the motif_found [10] was “FALSE”.

With PPRLPELAPTAPLPYPAPEA the motif_found [1] was “FALSE”.

With PQLPHLQRSPPDGQSF the best_specificity (HD2 library, bait TNKS_TANK-peptide-bind__O95271_174_649, best matching selected peptide) was 1, the best_confidence (HD2 library, bait TNKS_TANK-peptide-bind__O95271_174_649, confidence level of best matching selected peptide) was 2 and the motif_found [6] was “TRUE”.

PQPKLPYLPTFPFSMP gave an HD2 confidence (bait ANKRA2_Ank__Q9H9E1_142_313, HD2 P8 selection, confidence level -4 to 4: 4 = High, 3 or 2 = Medium, 1 = Low, 0 = Filtered/Noise) of 2.

PQYLNPFDEPEAFVTI was tested, and the best_specificity [11] was 1, the best_confidence [12] was 2 and the motif_found [4] was “TRUE”.

With PREHQTGSARSEGYYPISKKE the motif_found [8] was “FALSE”.

For PSENSNEFEWEDDLPKPKTTEVIR, the motif_found (library HD2, bait KLC1_TPR__Q07866_203_497, whether the validated benchmark motif instance was recovered in the ProP-PD selection (TRUE/FALSE)) was “FALSE”.

For PSNPDLDAGVSEHSGDWLD, the motif_found [13] was “FALSE”.

With PSTNPFVAAAGPSVAS the best_specificity [11] was 1, the best_confidence [12] was 2 and the motif_found [4] was “TRUE”.

In the case of PSTRKDYPAAKRVKLDSVRVLR, the motif_found [14] is reported as “FALSE”.

PVLEKDDLMDMDASQQNLF [HIP1] was tested, and the motif_found [2] was “FALSE”.

In the case of PYGDDMTVRKQPEGNPKPDIIE, the motif_found [6] is reported as “FALSE”.

In the case of QASALSFPAPPSRPLPPDPV [ADAM15], the motif_found (bait CRK_SH3_1_P46108_124_198, library HD2, benchmarking set of validated motif instances, TRUE = motif instance recovered in the ProP-PD selection) is reported as “FALSE”.

For “QDLLELKSVIKLQAWWRGTMIRR,DLLELKSVIKLQAWWRGTMIRREIGGFKMPK [IQCG 397-411]”, the motif_found (HD2 library, bait CALM1_EF-hand__P0DP23_2_149, benchmark motif instance, in_library_check FALSE, in_library_coverage 0) was “FALSE”.

QDYNETDWSQEFISEVTDP was tested, and the motif_found [15] was “FALSE”.

In the case of QELLSVGSKRRRTGGSLRGN, the motif_found [14] is reported as “FALSE”.

In the case of QELQEEKPSSSHLVSRPST, the motif_found [13] is reported as “FALSE”.

QENMRSSPNPFITGLTRTN was tested, and the motif_found [4] was “FALSE”.

In the case of QEPPESVRPSAPPAELEVQA, the motif_found [9] is reported as “FALSE”.

For QERPLTNKLKRKRRPTSGLHPE, the motif_found [14] was “FALSE”.

For QFSLYTSPSLPNISLGLQATVTVT [HDAC5], the motif_found (bait ANKRA2_Ank__Q9H9E1_142_313, library HD2, benchmarking set of validated motif instances, TRUE = motif instance recovered in the ProP-PD selection) was “TRUE”.

With QGSWVELHFSNNGNGG the motif_found (bait MAP1LC3A_ATG8 (Q9H492 2-121), HD2 library, benchmark motif instance recovered in the ProP-PD selection (TRUE/FALSE)) was “TRUE”, the best_confidence (bait MAP1LC3A_ATG8 (Q9H492 2-121), HD2 library, confidence level (1-4) of best matching peptide) was 3 and the best_specificity (bait MAP1LC3A_ATG8 (Q9H492 2-121), HD2 library, specificity score of best matching peptide) was 1. For the same substance, the motif_found [7] was “TRUE”, the best_confidence (bait MAP1LC3B_ATG8 (Q9GZQ8 2-119), HD2 library, confidence level (1-4) of best matching peptide) was 3 and the best_specificity (bait MAP1LC3B_ATG8 (Q9GZQ8 2-119), HD2 library, specificity score of best matching peptide) was 1.

QLSPNAKEFVYNGGGS was tested, and the best_confidence (bait PABP-B_PABP__P11940_544_623, HD2 library, confidence level (1-4) of best matching selected peptide) was 4, the best_specificity (bait PABP-B_PABP__P11940_544_623, HD2 library, specificity score of best matching selected peptide) was 1 and the motif_found (bait PABP-B_PABP__P11940_544_623, HD2 library, whether the validated benchmark motif instance was recovered in the ProP-PD selection (TRUE/FALSE)) was “TRUE”.

QMPADTPPPAYLPPEDPM was tested, and the motif_found (bait NEDD4_WW_4 (P46934 890-928), HD2 library, benchmark motif instance recovered in the ProP-PD selection (TRUE/FALSE)) was “FALSE”.

With QQGTSDAWVDQFTRPVNTS the motif_found [15] was “FALSE”.

For QQHEGPSLNPFDEEDLSSP, the motif_found [4] was “FALSE”.

In the case of “QQKQRQKHFNRQIPAAASLIQTAWRCYAAENPDSSTWKIYIRKAPRSHTLLSPSPKPKKSVVVKKKKFKLDKDNGVTPGEKMLTVPHITCDPPEERRLDHFSVDGYDSSVRKSPTLLEVSMPHFMRTNSFAEDLDLEGETLLTPITHISQLREHHRATIKVIRRMQYFVAKKKFQQARKP [KCNQ1]”, the motif_found (bait CALM1_EF-hand__P0DP23_2_149, library HD2, benchmarking set of validated motif instances, TRUE = motif instance recovered in the ProP-PD selection) is reported as “FALSE”.

For QQQLNWKQDSNPLYKSAITTTI, the motif_found (HD2 library, bait TLN1_PTB__Q9Y490_309_401, known motif instance of the benchmarking set found (TRUE) or not found (FALSE) among selected peptides) was “FALSE”.
